Measured values taken from PubChem BioAssay (NCI).
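Interpolation was linear, between the two tested concentrations surrounding the appropriate level; five concentrations were tested over 48 hours in 96-well plates. TGI marks complete inhibition of growth.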

What was measured:
Assay in all cases: growth of human tumour cells (NCI), 48 h
[1] = tested on: 786-0 renal
[2] = tested on: A498 renal
[3] = tested on: A549 NSCLC
[4] = tested on: ACHN renal
[5] = tested on: CAKI-1 renal
[6] = tested on: CCRF-CEM leukemia
[7] = tested on: COLO 205 colon
[8] = tested on: DU-145 prostate
[9] = tested on: EKVX NSCLC
[10] = tested on: HCC-2998 colon
[11] = tested on: HCT-116 colon
[12] = tested on: HL-60(TB) leukemia
[13] = tested on: HOP-62 NSCLC
[14] = tested on: HOP-92 NSCLC
[15] = tested on: HS 578T breast
[16] = tested on: HT29 colon
[17] = tested on: IGROV1 ovarian
[18] = tested on: K-562 leukemia
[19] = tested on: KM12 colon
[20] = tested on: LOX IMVI melanoma
[21] = tested on: M14 melanoma
[22] = tested on: MALME-3M melanoma
[23] = tested on: MCF7 breast
[24] = tested on: MDA-MB-231 breast
[25] = tested on: MDA-MB-435
[26] = tested on: MDA-N
[27] = tested on: MOLT-4 leukemia
[28] = tested on: NCI-H226 lung
[29] = tested on: NCI-H23 lung
[30] = tested on: NCI-H460 lung
[31] = tested on: NCI-H522 lung
[32] = tested on: NCI/ADR-RES ovarian
[33] = tested on: OVCAR-3 ovarian
[34] = tested on: OVCAR-4 ovarian
[35] = tested on: OVCAR-5 ovarian
[36] = tested on: OVCAR-8 ovarian
[37] = tested on: PC-3 prostate
[38] = tested on: RPMI-8226 leukemia
[39] = tested on: RXF 393 renal
[40] = tested on: SF-268 CNS
[41] = tested on: SF-295 CNS
[42] = tested on: SF-539 CNS
[43] = tested on: SK-MEL-28 melanoma
[44] = tested on: SK-MEL-5 melanoma
[45] = tested on: SK-OV-3 ovarian
[46] = tested on: SN12C renal
[47] = tested on: SNB-19 CNS
[48] = tested on: SNB-75 CNS
[49] = tested on: SR leukemia
[50] = tested on: SW-620 colon
[51] = tested on: TK-10 renal
[52] = tested on: UACC-257 melanoma
[53] = tested on: UACC-62 melanoma
[54] = tested on: UO-31 renal

In the case of O=[N+]1ON=C(c2ccccc2)C1=C1C(c2c(-c3ccccc3)no[n+]2[O-])=NON1[O-], the TGI [1] was 31.2 µM, the TGI [2] was 43.7 µM and the TGI [3] was > 100 µM. The TGI [4] was 27.4 µM, the TGI [5] was 56.7 µM and the TGI [6] was > 100 µM. The TGI [7] was 25.4 µM, the TGI [8] was > 100 µM and the TGI [9] was > 100 µM. The TGI [10] was > 100 µM, the TGI [11] was 16.2 µM and the TGI [12] was 7.52 µM. The TGI [13] was 55.1 µM, the TGI [14] was 70.1 µM and the TGI [15] was > 100 µM. The TGI [16] was 24.8 µM, the TGI [17] was > 100 µM and the TGI [18] was 10.6 µM. The TGI [19] was > 100 µM, the TGI [20] was 8.67 µM and the TGI [21] was > 100 µM. The TGI [22] was 51.3 µM, the TGI [23] was 7.51 µM and the TGI [24] was 95.9 µM. For the same compound, the TGI [25] was 6.56 µM, the TGI [26] was 10.5 µM and the TGI [27] was > 100 µM. It also gave a TGI [28] of 62.5 µM, a TGI [29] of 20.7 µM and a TGI [30] of 68.7 µM. The TGI [31] was > 100 µM, the TGI [32] was > 100 µM and the TGI [33] was 30.6 µM. For the same compound, the TGI [34] was 9.79 µM, the TGI [35] was > 100 µM and the TGI [36] was > 100 µM. For the same compound, the TGI [37] was 11.3 µM, the TGI [38] was > 100 µM and the TGI [39] was 10.1 µM. For the same compound, the TGI [40] was > 100 µM, the TGI [41] was > 100 µM and the TGI [42] was 73.4 µM. For the same compound, the TGI [43] was > 100 µM, the TGI [44] was > 100 µM and the TGI [45] was > 100 µM. The TGI [46] was > 100 µM, the TGI [47] was > 100 µM and the TGI [48] was 33.2 µM. The TGI [49] was > 100 µM, the TGI [50] was > 100 µM and the TGI [51] was > 100 µM. It also gave a TGI [52] of 67.3 µM, a TGI [53] of 51.2 µM and a TGI [54] of 48.6 µM.
